Measurements taken from patent US20080268435A1, “Brca1 Markers” (THE QUEEN'S UNIVERSITY OF BELFAST, priority 2004, published 2008).

Tests used:
Format in all cases: cell-based
[1] = tested on: psoriasin (S100A7) mRNA and protein in HCC-EV1 and HCC-BR116 cells; assay: Northern and Western blot of psoriasin expression after etoposide treatment; details: BRCA1 deficient cells (HCC-EV1), 1 μM etoposide for 24 hours
Protocol: (§1) Cells were either untreated (lanes 1 and 2) or treated with 1 μM etoposide for 24 hours. The blot was reprobed for GAPDH as a loading control, (b) A Western blot evaluating the expression of psoriasin protein in the HCC-EV1 cell line (lanes 1 and 3) and the HCC-BR116 cell line (lanes 2 and 4). Cells were either untreated (lanes 1 and 2) or treated with 1 μM etoposide for 24 hours. The blot was reprobed for GAPDH as a loading control, (c) A 72 hour dose inhibition study investigating the effect of psoriasin expression on the response to etoposide in the HP1 and MDA-MB-231-zeo cell lines. The IC50 values were calculated from the sigmoidal dose response curves. The results represent three independent experiments. (Symbols □=HP1 cell line (psoriasin expression) ▴=MDA-MB-231-zeo (empty vector control), (d) A 72 hour dose inhibition study investigating the effect of loss of psoriasin expression on the response to etoposide in the HCCEV1 cell line. The IC50 values were calculated from the sigmoidal dose response curves. The results represent three independent experiments. (Symbols ▴=siRNA to psoriasin □=scrambled sequence). […]

[2] = tested on: HP1 and MDA-MB-231-zeo cell lines; assay: 72 hour dose inhibition study of etoposide, psoriasin-expressing HP1 vs empty vector MDA-MB-231-zeo cells; details: HP1 (exogenous psoriasin) vs MDA-MB231-zeo vector control; 72 h continuous exposure; from IC50 values; three independent experiments
Protocol: as §1, with “response curves. […] (Symbols □=HP1” for “response curves. The results represent three independent experiments. (Symbols □=HP1”
The HCC-EV1 cell line was treated with scrambled or psoriasin specific siRNA and after 24 hours seeded at 100,000 cells per well on 24 well tissue culture plates. […] After 72 h of continuous drug exposure, cells were detached with trypsin, and counted using a Z2 particle and size analyzer (Coulter, Miami, Fla.). […]

HCC-EV1 cell line = assay: 72 hour dose inhibition study of etoposide in HCC-EV1 cells, psoriasin siRNA vs scrambled sequence; details: BRCA1 deficient HCC-EV cells, 72 h exposure, from IC50 values, three independent experiments
Protocol: as §1, with “response curves. […] (Symbols □=HP1” for “response curves. The results represent three independent experiments. (Symbols □=HP1”
For drug sensitivity assays HCC-EV and HCCBR cells were seeded onto 24-well tissue culture plates at a density of 100,000 cells per well. […] After 72 hours of continuous drug exposure, cells were detached with trypsin and counted using a Z2 particle and size analyser (Coulter, Miami, Fla.). […]

Question: Which results are given for `COc1cc([C@@H]2c3cc4c(cc3[C@@H](O[C@@H]3O[C@@H]5CO[C@@H](C)O[C@H]5[C@H](O)[C@H]3O)[C@H]3COC(=O)[C@H]23)OCO4)cc(OC)c1O` [etoposide]?
Answer: expression of psoriasin mRNA and protein following etoposide treatment [1]: enhanced expression; increase in sensitivity to etoposide induced by expression of psoriasin [2]: 4000 fold; increase in resistance to etoposide induced by inhibition of endogenous psoriasin (HCC-EV1 cell line): greater than 20 fold
